The numbers were not newly measured in patent publication US10633811B1, “Apparatus and method for collecting and disposing of pet waste” (COSMIC PET LLC, priority 2017, dated 2020), which cites them from elsewhere.

One data set deals with Pseudomonas aeruginosa PAO1. The conditions noted are these: CAMHB, 0.1% Tween 80.
Take `O=CC=Cc1ccccc1` [Cinnamaldehyde]: the MIC is on record as 0.1%.

Take `C=CCc1ccc(O)c(OC)c1` [Eugenol]: the MIC is recorded as >5%.

Regarding `C=CC(C)(O)CCC=C(C)C` (stereo not shown) [Linalool], the MIC is recorded as >5%.

A further data set relates to C. jejuni C338. To be noted: Table 3, single compounds; Nutrient Broth No. 2, 37° C., Tween 80 0.002% vol/vol.
For `C=CC(C)(O)CCC=C(C)CCC=C(C)C` (stereo not shown) [Nerolidol], the “C. jejuni C338 (MIC %)” value is on record as 0.5%.

In the case of `CC1=CCC(O)(C(C)C)CC1` (stereo not shown) [Terpinen-4-ol], the “C. jejuni C338 (MIC %)” value is given as 0.06%.

For the molecule α-Bisabolol, the “C. jejuni C338 (MIC %)” value is 0.5%.

As to `CC12CCC(CC1)C(C)(C)O2` [Cineole], the “C. jejuni C338 (MIC %)” value is 0.25%.

In the case of `CC1=CC=C(C(C)C)CC1` [α-Terpinene], the “C. jejuni C338 (MIC %)” value is listed as 0.25%.

A further data set relates to C. jejuni 3393. The conditions noted are these: Table 3, single compounds; Nutrient Broth No. 2, 37° C., Tween 80 0.002% vol/vol.
For `C=CC(C)(O)CCC=C(C)CCC=C(C)C` (stereo not shown) [Nerolidol], the “C. jejuni 3393 (MIC %)” value was 0.5%.

Take `CC1=CCC(O)(C(C)C)CC1` (stereo not shown) [Terpinen-4-ol]: the “C. jejuni 3393 (MIC %)” value was 0.06%.

On to α-Bisabolol, for which the “C. jejuni 3393 (MIC %)” value was 0.125%.

`CC12CCC(CC1)C(C)(C)O2` [Cineole]: the “C. jejuni 3393 (MIC %)” value is reported as 0.25%.

For `CC1=CC=C(C(C)C)CC1` [α-Terpinene], the “C. jejuni 3393 (MIC %)” value was 0.125%.

The test system of a further data set is C. coli ATCC 43484. To be noted: Table 3, single compounds; Nutrient Broth No. 2, 37° C., Tween 80 0.002% vol/vol.
`C=CC(C)(O)CCC=C(C)CCC=C(C)C` (stereo not shown) [Nerolidol]: the “C. coli ATCC 43484 (MIC %)” value is on record as 1%.

On to `CC1=CCC(O)(C(C)C)CC1` (stereo not shown) [Terpinen-4-ol], for which the “C. coli ATCC 43484 (MIC %)” value is given as 0.06%.

On to α-Bisabolol, for which the “C. coli ATCC 43484 (MIC %)” value is 0.5%.

Regarding `CC12CCC(CC1)C(C)(C)O2` [Cineole], the “C. coli ATCC 43484 (MIC %)” value is 0.25%.

`CC1=CC=C(C(C)C)CC1` [α-Terpinene]: the “C. coli ATCC 43484 (MIC %)” value is 0.125%.

The next data set has as its system E. coli O26. To be noted: Table 3, single compounds; Nutrient Broth No. 2, 37° C., Tween 80 0.002% vol/vol.
Take `C=CC(C)(O)CCC=C(C)CCC=C(C)C` (stereo not shown) [Nerolidol]: the “E. coli O26 (MIC %)” value was >2%.

`CC1=CCC(O)(C(C)C)CC1` (stereo not shown) [Terpinen-4-ol]: the “E. coli O26 (MIC %)” value is listed as 0.06%.

As to α-Bisabolol, the “E. coli O26 (MIC %)” value was 2%.

Regarding `CC12CCC(CC1)C(C)(C)O2` [Cineole], the “E. coli O26 (MIC %)” value was 1%.

Consider `CC1=CC=C(C(C)C)CC1` [α-Terpinene], for which the “E. coli O26 (MIC %)” value was >2%.

For a further data set, the system named is S. typhimurium ATCC 14028. The conditions noted are these: Table 3, single compounds; Nutrient Broth No. 2, 37° C., Tween 80 0.002% vol/vol.
Regarding `C=CC(C)(O)CCC=C(C)CCC=C(C)C` (stereo not shown) [Nerolidol], the “S. typhimurium ATCC 14028 (MIC %)” value is >2%.

Take `CC1=CCC(O)(C(C)C)CC1` (stereo not shown) [Terpinen-4-ol]: the “S. typhimurium ATCC 14028 (MIC %)” value was 0.06%.

For α-Bisabolol, the “S. typhimurium ATCC 14028 (MIC %)” value is >2%.

`CC12CCC(CC1)C(C)(C)O2` [Cineole]: the “S. typhimurium ATCC 14028 (MIC %)” value is 2%.

Take `CC1=CC=C(C(C)C)CC1` [α-Terpinene]: the “S. typhimurium ATCC 14028 (MIC %)” value was >2%.

A further data set deals with E. faecalis ATCC 29212. To be noted: Table 3, single compounds; Nutrient Broth No. 2, 37° C., Tween 80 0.002% vol/vol.
For `C=CC(C)(O)CCC=C(C)CCC=C(C)C` (stereo not shown) [Nerolidol], the “E. faecalis ATCC 29212 (MIC %)” value was >2%.

On to `CC1=CCC(O)(C(C)C)CC1` (stereo not shown) [Terpinen-4-ol], for which the “E. faecalis ATCC 29212 (MIC %)” value is 0.5%.

Turning to α-Bisabolol, the “E. faecalis ATCC 29212 (MIC %)” value is >2%.

Consider `CC12CCC(CC1)C(C)(C)O2` [Cineole], for which the “E. faecalis ATCC 29212 (MIC %)” value is reported as >2%.

For the molecule `CC1=CC=C(C(C)C)CC1` [α-Terpinene], the “E. faecalis ATCC 29212 (MIC %)” value is reported as >2%.

In a further data set the test system is C.jejuni 108.
Details: not given
For the molecule `Cc1ccc(C(C)C)cc1O` [Carvacrol], the “C.jejuni 108 MIC” value is 300 to 400 µM.

The test system of the next data set is C.jejuni 81116.
Details: not given
`Cc1ccc(C(C)C)cc1O` [Carvacrol]: the “C.jejuni 81116 MIC” value is 300 to 400 µM.

The subject of another data set is Campylobacter spp. The conditions noted are these: against Campylobacter spp., E. coli, S. typhimurium, and E. faecalis.
`CC1=CCC(O)(C(C)C)CC1` (stereo not shown) [Terpinen-4-ol]: the “antimicrobial activity among single compounds” value is listed as “highest activity”.

In another data set the test system is Campylobacter jejuni. The conditions noted are these: strain not given.
As to `Cc1ccc(C(C)C)cc1O` [Carvacrol], the “concentration that inhibits Campylobacter jejuni” value was 0.3 to 0.4 mM.
